Test results as given in patent US20170190705A1, “Compositions and Methods for Inhibiting BMP” (THE BRIGHAM AND WOMAN'S HOSPITAL, INC., priority 2014, published 2017).

Tests used:
Type in all cases: biochemical
PRAK = target: T1, PRAK (Homo sapiens, UniProt Q8IW41); assay: Kinome profiling PRAK; conditions: read-out: Inhibitory activity PRAK; for inhibition at 0.1 µM: 100 nM
T1 sequence (Q8IW41 1-473): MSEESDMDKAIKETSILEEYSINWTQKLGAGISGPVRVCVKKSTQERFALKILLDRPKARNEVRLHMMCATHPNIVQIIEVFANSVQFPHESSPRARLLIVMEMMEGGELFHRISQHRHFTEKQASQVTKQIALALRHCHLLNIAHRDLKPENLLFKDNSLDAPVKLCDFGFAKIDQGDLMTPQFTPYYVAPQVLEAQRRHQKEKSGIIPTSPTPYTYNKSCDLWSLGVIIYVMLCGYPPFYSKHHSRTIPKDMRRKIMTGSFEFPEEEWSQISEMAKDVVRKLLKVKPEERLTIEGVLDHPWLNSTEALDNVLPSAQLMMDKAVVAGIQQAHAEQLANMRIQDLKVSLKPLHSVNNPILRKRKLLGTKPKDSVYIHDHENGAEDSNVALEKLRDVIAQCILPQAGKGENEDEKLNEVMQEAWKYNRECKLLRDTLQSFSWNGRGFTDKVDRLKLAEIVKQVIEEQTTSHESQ
Method: (§1) . The kinome-wide selectivity was determined following the methods previously reported by Mohedas et al., ACS Chem Biol 2013, 8, 1291-1302 and Sanvitale et al., PLoS One 2013, 8, e62721.

MSK2 = MSK2 (Homo sapiens, UniProt O75676); assay: Kinome profiling MSK2; conditions: read-out: Inhibitory activity MSK2; for inhibition at 0.1 µM: 100 nM
MSK2, sequence (O75676 whole entry): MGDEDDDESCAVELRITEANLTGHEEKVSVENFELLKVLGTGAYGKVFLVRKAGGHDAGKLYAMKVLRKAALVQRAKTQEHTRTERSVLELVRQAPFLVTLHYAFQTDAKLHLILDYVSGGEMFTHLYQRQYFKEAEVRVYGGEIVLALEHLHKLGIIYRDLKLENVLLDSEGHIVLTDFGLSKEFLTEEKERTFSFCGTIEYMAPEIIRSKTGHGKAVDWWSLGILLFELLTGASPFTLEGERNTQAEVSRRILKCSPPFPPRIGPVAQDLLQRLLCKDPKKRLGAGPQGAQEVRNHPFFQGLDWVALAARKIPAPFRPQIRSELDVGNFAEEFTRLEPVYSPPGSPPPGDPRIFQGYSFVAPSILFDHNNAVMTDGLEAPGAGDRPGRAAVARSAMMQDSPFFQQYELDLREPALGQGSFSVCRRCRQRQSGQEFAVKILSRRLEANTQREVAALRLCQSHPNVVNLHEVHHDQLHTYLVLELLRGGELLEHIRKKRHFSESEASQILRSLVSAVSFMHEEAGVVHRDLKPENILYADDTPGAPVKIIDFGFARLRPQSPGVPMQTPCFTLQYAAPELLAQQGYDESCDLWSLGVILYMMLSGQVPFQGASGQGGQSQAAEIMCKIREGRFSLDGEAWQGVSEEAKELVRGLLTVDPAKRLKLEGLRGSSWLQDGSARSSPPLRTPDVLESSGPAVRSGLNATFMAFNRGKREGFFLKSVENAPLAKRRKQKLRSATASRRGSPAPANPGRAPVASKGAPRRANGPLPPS
Method: as §1

EPHA3 = target: T2, EPHA3 (Homo sapiens, UniProt P29320); assay: Kinome profiling EPHA3; conditions: read-out: Inhibitory activity EPHA3; for inhibition at 0.1 µM: 100 nM
T2 sequence (P29320 21-983): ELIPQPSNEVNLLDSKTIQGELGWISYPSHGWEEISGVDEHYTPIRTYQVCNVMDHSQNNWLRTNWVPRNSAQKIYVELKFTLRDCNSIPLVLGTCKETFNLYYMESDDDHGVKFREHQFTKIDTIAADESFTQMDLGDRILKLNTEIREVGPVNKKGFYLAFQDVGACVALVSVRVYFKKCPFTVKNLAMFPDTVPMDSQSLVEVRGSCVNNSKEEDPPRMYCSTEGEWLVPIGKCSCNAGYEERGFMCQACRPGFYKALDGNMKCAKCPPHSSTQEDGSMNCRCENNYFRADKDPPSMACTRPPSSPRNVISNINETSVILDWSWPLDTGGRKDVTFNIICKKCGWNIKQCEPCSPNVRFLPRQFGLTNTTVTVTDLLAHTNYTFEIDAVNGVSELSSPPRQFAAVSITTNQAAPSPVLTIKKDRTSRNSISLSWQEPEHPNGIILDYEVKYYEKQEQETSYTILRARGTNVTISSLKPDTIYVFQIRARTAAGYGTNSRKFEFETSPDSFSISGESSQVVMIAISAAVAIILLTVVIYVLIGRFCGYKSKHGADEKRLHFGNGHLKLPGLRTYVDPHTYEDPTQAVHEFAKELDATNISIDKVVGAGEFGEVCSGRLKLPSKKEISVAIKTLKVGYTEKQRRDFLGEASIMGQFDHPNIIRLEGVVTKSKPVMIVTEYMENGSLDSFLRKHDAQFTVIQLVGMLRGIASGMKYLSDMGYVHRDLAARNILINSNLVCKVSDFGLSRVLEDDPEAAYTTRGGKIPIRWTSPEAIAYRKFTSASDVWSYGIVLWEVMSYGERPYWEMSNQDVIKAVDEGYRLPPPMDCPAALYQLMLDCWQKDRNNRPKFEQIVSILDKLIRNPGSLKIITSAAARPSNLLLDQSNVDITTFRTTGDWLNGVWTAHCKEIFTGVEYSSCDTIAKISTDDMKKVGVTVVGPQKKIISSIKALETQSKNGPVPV
Method: as §1

TTK = target: T3, TTK (Homo sapiens, UniProt P33981); assay: Kinome profiling TTK; conditions: read-out: Inhibitory activity TTK; for inhibition at 0.1 µM: 100 nM
T3 sequence (P33981 1-857): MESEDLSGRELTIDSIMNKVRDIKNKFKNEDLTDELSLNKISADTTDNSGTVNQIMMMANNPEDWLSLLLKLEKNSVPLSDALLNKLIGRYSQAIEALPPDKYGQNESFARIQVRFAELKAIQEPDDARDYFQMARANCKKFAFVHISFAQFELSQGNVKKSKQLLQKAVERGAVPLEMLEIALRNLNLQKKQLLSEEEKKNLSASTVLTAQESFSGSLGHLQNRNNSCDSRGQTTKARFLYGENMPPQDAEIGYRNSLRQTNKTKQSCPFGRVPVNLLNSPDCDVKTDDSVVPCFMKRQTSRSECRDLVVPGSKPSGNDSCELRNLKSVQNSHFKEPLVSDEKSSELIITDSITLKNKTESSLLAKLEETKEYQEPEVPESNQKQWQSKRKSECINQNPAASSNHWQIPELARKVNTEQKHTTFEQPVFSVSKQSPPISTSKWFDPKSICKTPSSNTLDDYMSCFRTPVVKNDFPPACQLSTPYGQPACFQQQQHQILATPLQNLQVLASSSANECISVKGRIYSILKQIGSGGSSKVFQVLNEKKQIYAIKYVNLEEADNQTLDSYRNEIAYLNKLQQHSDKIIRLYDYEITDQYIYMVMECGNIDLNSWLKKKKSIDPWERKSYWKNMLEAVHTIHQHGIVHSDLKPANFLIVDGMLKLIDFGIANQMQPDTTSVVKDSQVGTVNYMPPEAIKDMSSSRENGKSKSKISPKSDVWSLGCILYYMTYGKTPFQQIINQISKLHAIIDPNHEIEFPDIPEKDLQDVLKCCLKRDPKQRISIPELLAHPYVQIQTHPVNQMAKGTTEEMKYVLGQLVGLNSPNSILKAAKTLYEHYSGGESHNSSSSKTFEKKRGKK
Method: as §1

EGFR = EGFR (Homo sapiens, UniProt P00533); assay: Kinome profiling EGFR; conditions: read-out: Inhibitory activity EGFR; for inhibition at 0.1 µM: 100 nM
EGFR, sequence (P00533 25-1210): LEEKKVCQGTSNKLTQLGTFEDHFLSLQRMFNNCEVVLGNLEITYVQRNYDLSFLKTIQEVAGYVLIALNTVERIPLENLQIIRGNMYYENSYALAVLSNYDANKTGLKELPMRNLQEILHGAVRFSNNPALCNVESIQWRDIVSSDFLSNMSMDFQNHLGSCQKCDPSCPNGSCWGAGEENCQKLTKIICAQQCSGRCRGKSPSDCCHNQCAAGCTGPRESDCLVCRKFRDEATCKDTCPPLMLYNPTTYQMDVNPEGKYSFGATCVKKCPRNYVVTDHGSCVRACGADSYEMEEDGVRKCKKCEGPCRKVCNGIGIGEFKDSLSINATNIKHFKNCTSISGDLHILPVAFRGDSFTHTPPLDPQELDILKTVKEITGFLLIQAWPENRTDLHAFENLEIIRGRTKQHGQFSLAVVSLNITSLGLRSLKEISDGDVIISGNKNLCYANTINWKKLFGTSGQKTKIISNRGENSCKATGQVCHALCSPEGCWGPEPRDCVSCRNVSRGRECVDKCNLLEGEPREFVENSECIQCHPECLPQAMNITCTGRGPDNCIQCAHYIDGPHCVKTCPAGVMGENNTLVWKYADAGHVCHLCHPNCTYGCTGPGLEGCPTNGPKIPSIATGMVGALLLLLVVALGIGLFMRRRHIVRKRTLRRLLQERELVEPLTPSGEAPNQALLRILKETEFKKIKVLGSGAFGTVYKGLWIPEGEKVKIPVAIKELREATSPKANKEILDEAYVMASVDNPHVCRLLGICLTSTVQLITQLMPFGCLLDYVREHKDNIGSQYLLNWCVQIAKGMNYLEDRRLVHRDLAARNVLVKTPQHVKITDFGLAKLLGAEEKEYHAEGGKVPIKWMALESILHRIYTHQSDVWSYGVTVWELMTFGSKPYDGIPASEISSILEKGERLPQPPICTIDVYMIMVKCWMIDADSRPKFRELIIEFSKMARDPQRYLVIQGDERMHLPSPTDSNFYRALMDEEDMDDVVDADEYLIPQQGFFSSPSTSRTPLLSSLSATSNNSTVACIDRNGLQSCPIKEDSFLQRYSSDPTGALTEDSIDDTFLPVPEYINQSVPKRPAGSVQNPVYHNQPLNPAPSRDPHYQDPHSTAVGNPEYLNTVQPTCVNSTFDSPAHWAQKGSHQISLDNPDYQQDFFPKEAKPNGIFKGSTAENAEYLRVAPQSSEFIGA
Method: as §1

SYK = SYK (Homo sapiens, UniProt P43405); assay: Kinome profiling SYK; conditions: read-out: Inhibitory activity SYK; for inhibition at 0.1 µM: 100 nM
Method: as §1

COc1cc(-c2cc(-c3ccc(N4CCNCC4)cc3)cnc2C)cc(OC)c1OC [Compound 10, 1-(4-(6-methyl-5-(3,4,5-trimethoxyphenyl)pyridin-3-yl)phenyl)piperazine] gave an inhibition at 0.1 µM (PRAK) of 0%, an inhibition at 1 µM (PRAK) of 3% and an inhibition at 0.1 µM (MSK2) of 0%. The inhibition at 1 µM (MSK2) was 1%, the inhibition at 0.1 µM (EPHA3) was 2% and the inhibition at 1 µM (EPHA3) was 3%. It also gave an inhibition at 0.1 µM (TTK) of 3%, an inhibition at 1 µM (TTK) of 4% and an inhibition at 0.1 µM (EGFR) of 3%. For the same compound, the inhibition at 1 µM (EGFR) was 16%, the inhibition at 0.1 µM (SYK) was 0% and the inhibition at 1 µM (SYK) was -1%.

Work on COc1cc(-c2cc(-c3ccc(N4CCNCC4)cc3)cnc2N)cc(OC)c1OC [Compound 15, 5-(4-(piperazin-1-yl)phenyl)-3-(3,4,5-trimethoxyphenyl)pyridin-2-amine] yielded an inhibition at 0.1 µM (PRAK) of 1%, an inhibition at 1 µM (PRAK) of 1% and an inhibition at 0.1 µM (MSK2) of 1%. It also gave an inhibition at 1 µM (MSK2) of -1%, an inhibition at 0.1 µM (EPHA3) of 8% and an inhibition at 1 µM (EPHA3) of 31%. The inhibition at 0.1 µM (TTK) was 13%, the inhibition at 1 µM (TTK) was 18% and the inhibition at 0.1 µM (EGFR) was 8%. It also gave an inhibition at 1 µM (EGFR) of 37%, an inhibition at 0.1 µM (SYK) of 1% and an inhibition at 1 µM (SYK) of -4%.
